Reference: patent US12565522B2, “Micropeptide HMMW and application thereof” (NANJING ANJI BIOTECHNOLOGY CO., LTD., priority 2019, dated 2026)
No end group written: not given here.

Columns and labels:
Assay in all cases: cells
Assay type in all cases: cell-based, human
Conditions in all cases: 1 to 32 μM, vs negative control, dose-dependent
[1] = tested on: SCC4 cells of head and neck cancer
Protocol: (§1) After SCC4 cells of head and neck cancer, SW579 cells of thyroid cancer, A549 cells of lung cancer, TE13 cells of esophageal squamous cell carcinoma, MGC803 cells of stomach cancer, MDA-MB-231 cells of breast cancer, UOK262 cells of kidney cancer and A431 cells of skin cancer of human were cultured in a 37 DEG C. 5% CO2 incubator until the density was 90%, they were digested and collected by trypsin, the cells were re-suspended in a culture solution and counted under a microscope, the concentration of the cells was adjusted to 3.0×10^4 cells/mL, and the cell suspension was inoculated to 96-well plates, 100 μL per well, and cultured in a 37 DEG C. 5% CO2 incubator overnight. After the cells were completely adherent, different doses of micropeptides HMMW I to IX were added as drug groups, taxol was used as a positive control group, and the culture solution without any drug was used as a blank control group. They were diluted with the culture solution till predetermined concentrations. The diluted solutions were added to 96-well plates, respectively, 100 μL per well, and incubated in a 37 DEG C. 5% CO2 incubator for 48 h. 20 μL of 5 mg/mL MTT was added to each well of the 96-well plates, and the culture was continued for 4 h. The culture medium was sucked away, and 100 μL of DMSO was added to each well for dissolution. Absorbance was detected by ELIASA at detection wavelength 570 nm and reference wavelength 630 nm, and proliferation inhibition (PI) was calculated according to Formula PI (%)=1−drug group/negative group. The test was independently repeated three times. The results obtained from the test were expressed with mean±SD and statistical t test was done. *P<0.05 means significant difference, and **P<0.01 means very significant difference.

[2] = tested on: UOK262 cells of kidney cancer
Protocol: as §1

[3] = tested on: A431 cells of skin cancer
Protocol: as §1

[4] = tested on: TE13 cells of esophageal squamous cell carcinoma
Protocol: as §1

[5] = tested on: MGC803 cells of stomach cancer
Protocol: as §1

[6] = tested on: A549 cells of lung cancer
Protocol: as §1

[7] = tested on: MDA-MB-231 cells of breast cancer
Protocol: as §1

[8] = tested on: SW579 cells of thyroid cancer
Protocol: as §1

Measured: inhibition of proliferation

MERAGVPGFSPRRSSVEAKMQSTSCSVRKSSTVTAWPAVVLLLSWGQRRGG-OH [HMMW-I]
significantly inhibit: [1] | [2] | [3] | [4] | [5] | [6] | [7] | [8]
